Tests used:
human mGluR2 receptor = target: T1, human mGluR2 receptor (Homo sapiens, UniProt Q14416); experiment: [35S]GTPγS binding assay (GTPγS-PAM), membranes from CHO cells transfected with human mGluR2, glutamate at EC25; assay type: biochemical; settings: positive allosteric modulation in presence of glutamate at EC25 concentration; averages of duplicate values of 11-concentration response curves; error about 0.3 log-units; read-out: GTPgS - hR2 PAM pEC50 (converted)
T1 construct: expressed in transfected cells; host or cells: CHO cells (membrane preparation)
T1 sequence (Q14416 19-872): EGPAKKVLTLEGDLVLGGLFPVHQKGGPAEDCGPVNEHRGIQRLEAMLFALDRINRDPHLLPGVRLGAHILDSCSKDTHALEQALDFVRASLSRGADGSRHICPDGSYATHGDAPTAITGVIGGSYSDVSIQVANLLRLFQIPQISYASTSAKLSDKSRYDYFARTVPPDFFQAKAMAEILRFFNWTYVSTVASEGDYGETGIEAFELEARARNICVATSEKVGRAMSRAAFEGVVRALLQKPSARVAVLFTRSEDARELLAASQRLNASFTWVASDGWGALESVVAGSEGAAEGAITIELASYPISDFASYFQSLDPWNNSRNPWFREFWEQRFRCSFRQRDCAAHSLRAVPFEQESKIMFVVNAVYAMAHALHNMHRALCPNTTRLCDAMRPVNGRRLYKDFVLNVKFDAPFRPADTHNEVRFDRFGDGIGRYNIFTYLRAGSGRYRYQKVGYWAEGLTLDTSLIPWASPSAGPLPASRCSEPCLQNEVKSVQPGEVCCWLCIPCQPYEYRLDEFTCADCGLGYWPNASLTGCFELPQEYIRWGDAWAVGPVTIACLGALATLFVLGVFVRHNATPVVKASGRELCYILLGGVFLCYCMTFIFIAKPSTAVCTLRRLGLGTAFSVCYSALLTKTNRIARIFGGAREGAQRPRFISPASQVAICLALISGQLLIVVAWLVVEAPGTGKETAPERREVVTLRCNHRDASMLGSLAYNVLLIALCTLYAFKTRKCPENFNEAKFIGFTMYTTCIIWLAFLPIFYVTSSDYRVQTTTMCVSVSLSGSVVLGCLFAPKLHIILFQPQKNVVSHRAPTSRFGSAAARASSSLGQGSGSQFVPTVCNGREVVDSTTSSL
From the text: The compounds provided in the present invention are positive allosteric modulators of mGluR2. These compounds appear to potentiate glutamate responses by binding to an allosteric site other than the glutamate binding site. The response of mGluR2 to a concentration of glutamate is increased when compounds of Formula (I) are present. Compounds of Formula (I) are expected to have their effect substantially at mGluR2 by virtue of their ability to enhance the function of the receptor. The behaviour of positive allosteric modulators tested at mGluR2 using the [^35S]GTPγS binding assay method described below and which is suitable for the identification of such compounds, and more particularly the compounds according to Formula (I), are shown in Table 4.
The [^35S]GTPγS binding assay is a functional membrane-based assay used to study G-protein coupled receptor (GPCR) function whereby incorporation of a non-hydrolysable form of GTP, [^35S]GTPγS (guanosine 5′-triphosphate, labelled with […] ^35S), is measured. The G-protein α subunit catalyzes the exchange of guanosine 5′-diphosphate (GDP) by guanosine triphosphate (GTP) and on activation of the GPCR by an agonist, [^35S]GTPγS, becomes incorporated and cannot be cleaved to continue the exchange cycle (Harper (1998) Current Protocols in Pharmacology 2.6.1-10, John Wiley & Sons, Inc.). […] Here we describe the use of the [^35S]GTPγS binding assay using membranes from cells transfected with the human mGluR2 receptor and adapted from Schaffhauser et al ((2003) Molecular Pharmacology 4:798-810) for the detection of the positive allosteric modulation (PAM) properties of the compounds of this invention.
Cho-cells were cultured to pre-confluence and stimulated with 5 mm butyrate for 24 hours, prior to washing in PBS, and then collection by scraping in homogenisation buffer (50 mM Tris-HCl buffer, pH 7.4, 4° C.). Cell lysates were homogenized briefly (15 s) using an ultra-turrax homogenizer. The homogenate was centrifuged at 23 500×g for 10 minutes and the supernatant discarded. The pellet was resuspended in 5 mM Tris-HCl, pH 7.4 and centrifuged again (30 000×g, 20 min, 4° C.). The final pellet was resuspended in 50 mM HEPES, pH 7.4 and stored at −80° C. in appropriate aliquots before use. Protein concentration was determined by the Bradford method (Bio-Rad, USA) with bovine serum albumin as standard.
Measurement of mGluR2 positive allosteric modulatory activity of test compounds in membranes containing human mGluR2 was performed using frozen membranes that were thawed and briefly homogenised prior to pre-incubation in 96-well microplates (15 μg/assay well, 30 minutes, 30° C.) in assay buffer (50 mM HEPES pH 7.4, 100 mM NaCl, 3 mM MgCl2, 50 μM GDP, 10 μg/ml saponin,) with increasing concentrations of positive allosteric modulator (from 0.3 nM to 50 μM) and either a minimal pre-determined concentration of glutamate (PAM assay), or no added glutamate. For the PAM assay, membranes were pre-incubated with glutamate at EC25 concentration, i.e. a concentration that gives 25% of the maximal response glutamate, and is in accordance to published data (Pin et al. (1999) Eur. J. Pharmacol. 375:277˜294). After addition of [^35S]GTPγS (0.1 nM, f.c.) to achieve a total reaction volume of 200 μl, microplates were shaken briefly and further incubated to allow [^35S]GTPγS incorporation on activation (30 minutes, 30° C.). The reaction was stopped by rapid vacuum filtration over glass-fibre filter plates (Unifilter 96-well GF/B filter plates, Perkin-Elmer, Downers Grove, USA) microplate using a 96-well plate cell harvester (Filtermate, Perkin-Elmer, USA), and then by washing three times with 300 μl of ice-cold wash buffer (Na2PO4.2H20 10 mM, NaH2PO4.H20 10 mM, pH=7.4). Filters were then air-dried, and 40 μl of liquid scintillation cocktail (Microscint-O) was added to each well, and membrane-bound [^35S]GTPγS was measured in a 96-well scintillation plate reader (Top-Count, Perkin-Elmer, USA). […]

Row | SMILES | EC50 (human mGluR2 receptor) | melting point
1 | CCCCn1ccc(-c2ccc(Oc3ccnc(C)c3)cc2)c(Cl)c1=O [Compound 1, 1-Butyl-3-chloro-4-[4-(2-methylpyridin-4-yloxy)-phenyl]-1H-pyridin-2-one] | 251 nM | 
2 | CCCCn1ccc(-c2ccc(Oc3cccnc3C)cc2)c(Cl)c1=O [Compound 25] | 224 nM | 
3 | CCCCn1ccc(-c2ccc(Oc3ccnc(C)c3)c(F)c2)c(Cl)c1=O [Compound 8] | 174 nM | 
4 | CCCCn1ccc(-c2ccc(Oc3cc(C)nc(C)c3)cc2F)c(Cl)c1=O [Compound 10] | 200 nM | 
5 | Cc1cc(Oc2ccc(-c3ccn(CC4CC4)c(=O)c3Cl)c(F)c2)ccn1 [Compound 28] | 363 nM | 131.8 °C
6 | Cc1cc(Oc2ccc(-c3ccn(CC4CC4)c(=O)c3C(F)(F)F)cc2F)ccn1 [Compound 38] | 102 nM | 203.9 °C
7 | Cc1ccc(Oc2ccc(-c3ccn(CC4CC4)c(=O)c3Cl)cc2Cl)cn1 [Compound 20] | 91.2 nM | 111.8 °C
8 | CCCCn1ccc(-c2ccc(Oc3ccc(C)nc3C)cc2F)c(Cl)c1=O [Compound 35] | > 10000 nM | 
9 | Cc1cc(Oc2ccc(-c3ccn(CCC(C)C)c(=O)c3Cl)cc2)ccn1 [Compound 6] | 170 nM | 
10 | Cc1ncccc1Oc1ccc(-c2ccn(CC3CC3)c(=O)c2Cl)c(F)c1 [Compound 34] | > 10000 nM | 120.9 °C
11 | Cc1ccc(Oc2ccc(-c3ccn(CC4CC4)c(=O)c3Cl)cc2F)c(C)n1 [Compound 3, 3-Chloro-1-cyclopropylmethyl-4-[4-(2,6-dimethylpyridin-3-yloxy)-3-fluoro-phenyl]-1H-pyridin-2-one] | 182 nM | 143.4 °C
12 | Cc1cc(C)nc(Oc2ccc(-c3ccn(CC4CC4)c(=O)c3Cl)c(F)c2)c1 [Compound 36] | 891 nM | 
13 | CCCCn1ccc(-c2ccc(Oc3ccc(C)nc3)c(Cl)c2)c(Cl)c1=O [Compound 22] | 46.8 nM | 79.7 °C
14 | Cc1cc(Oc2ccc(-c3ccn(CC4CC4)c(=O)c3Cl)cc2Cl)ccn1 [Compound 17] | 117 nM | 120.8 °C
15 | Cc1cc(Oc2ccc(-c3ccn(CCC4CC4)c(=O)c3Cl)cc2)ccn1 [Compound 7] | 174 nM | 
16 | CCCCn1ccc(-c2ccc(Oc3ccnc(C)c3)c(Cl)c2)c(Cl)c1=O [Compound 18] | 100 nM | 
17 | Cc1cc(Oc2ccc(-c3ccn(CC4CC4)c(=O)c3Cl)cc2)ccn1 [Compound 13] | 513 nM | 
18 | Cc1cc(Oc2ccc(-c3ccn(CC4CC4)c(=O)c3Cl)c(F)c2)cc(C)n1 [Compound 32] | 372 nM | 148.6 °C
19 | CCCCn1ccc(-c2ccc(Oc3cc(C)nc(C)c3)c(F)c2)c(Cl)c1=O [Compound 9] | 234 nM | 

Row | SMILES | EC50 (human mGluR2 receptor) | melting point
20 | Cc1cc(Oc2ccc(-c3ccn(CCC(C)C)c(=O)c3Cl)cc2Cl)ccn1 [Compound 19] | 67.6 nM | 103.8 °C
21 | CCCCn1ccc(-c2ccc(Oc3cccnc3C)c(Cl)c2)c(Cl)c1=O [Compound 15] | 60.3 nM | 
22 | Cc1ncccc1Oc1ccc(-c2ccn(CC3CC3)c(=O)c2Cl)cc1 [Compound 24] | 437 nM | 126.2 °C
23 | CCCCn1ccc(-c2ccc(Oc3ccnc(C)c3C)cc2F)c(Cl)c1=O [Compound 11] | 67.6 nM | 
24 | Cc1ccc(Oc2ccc(-c3ccn(CCC(C)C)c(=O)c3Cl)cc2Cl)cn1 [Compound 21] | 46.8 nM | 96.1 °C
25 | Cc1cc(Oc2ccc(-c3ccn(CCC4CC4)c(=O)c3Cl)c(F)c2)ccn1 [Compound 26] | 155 nM | 
26 | CCCCn1ccc(-c2ccc(Oc3cccnc3C)cc2F)c(Cl)c1=O [Compound 29] | > 10000 nM | 108.4 °C
27 | Cc1cc(Oc2ccc(-c3ccn(CC4CC4)c(=O)c3C(F)(F)F)cc2F)cc(C)n1 [Compound 5, 1-Cyclopropylmethyl-4-[4-(2,6-dimethyl-pyridin-4-yloxy)-3-fluoro-phenyl]-3-trifluoromethyl-1H-pyridin-2-one] | 75.9 nM | 161.8 °C
28 | CCCCn1ccc(-c2ccc(Oc3ccc(C(=O)O)cc3)cc2)c(Cl)c1=O [Compound 4, 4-[4-(1-Butyl-3-chloro-2-oxo-1,2-dihydro-pyridin-4-yl)-phenoxy]-benzoic acid] | 138 nM | 280.3 °C
29 | Cc1cc(Oc2ccc(-c3ccn(CC4CC4)c(=O)c3Cl)cc2F)cc(C)n1 [Compound 31] | 288 nM | 161.6 °C
30 | CCCCn1ccc(-c2ccc(Oc3ccc(C)nc3C)c(F)c2)c(Cl)c1=O [Compound 30] | 46.8 nM | 
31 | Cc1ncccc1Oc1ccc(-c2ccn(CC3CC3)c(=O)c2Cl)cc1F [Compound 33] | 617 nM | 
32 | Cc1cc(Oc2ccc(-c3ccn(CC4CC4)c(=O)c3Cl)cc2F)ccn1 [Compound 27] | 355 nM | 176 °C
33 | CCCCn1ccc(-c2ccc(Oc3ccc(C(C)(C)O)cc3)cc2)c(Cl)c1=O [Compound 37] | 39.8 nM | 
34 | Cc1ccc(Oc2ccc(-c3ccn(CC4CC4)c(=O)c3Cl)cc2)c(C)n1 [Compound 14] | 138 nM | 151.8 °C
35 | CCCCn1ccc(-c2ccc(Oc3ccc(C)nc3C)cc2)c(Cl)c1=O [Compound 16] | 67.6 nM | 
36 | CCCCn1ccc(-c2ccc(Oc3ccnc(C)c3)cc2F)c(Cl)c1=O [Compound 2, 1-Butyl-3-chloro-4-[2-fluoro-4-(2-methylpyridin-4-yloxy)-phenyl]-1H-pyridin-2-one] | 282 nM | 
37 | CCCCn1ccc(-c2ccc(Oc3ccnc(C)c3C)c(F)c2)c(Cl)c1=O [Compound 12] | 129 nM | 
38 | Cc1ncccc1Oc1ccc(-c2ccn(CC3CC3)c(=O)c2Cl)cc1Cl [Compound 23] | 126 nM | 

Source: patent US8748621B2, “1,3-disubstituted 4-(aryl-X-phenyl)-1H-pyridin-2-ones” (Janssen Pharmaceuticals, Inc., priority 2007, dated 2014)
